The results in this text go back to patent publication US12084445B2, “Broad-spectrum carbapenems” (VenatoRx Pharmaceuticals, Inc., priority 2018, dated 2024).

Format in all cases: cell-based
Assay [1] concerns S. aureus ATCC 33591 (methicillin-resistant). The assay is described as follows: broth microdilution MIC assay, S. aureus ATCC 33591. Conditions: Staphylococcus aureus, ATCC 33591 / MRSA. In outline:
(§1)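 CLSI broth microdilution in cation-supplemented Mueller-Hinton broth, starting inoculum 5×10^5 CFU/mL, 2-fold compound dilutions. Incubation 16-20 h at 37 °C; MIC read visually as the lowest concentration with no growth.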
Background: In broth dilution the organism is exposed to a series of concentrations in liquid medium.

The test system of assay [2] is S. aureus ATCC 29213 (methicillin sensitive). The assay is described as follows: broth microdilution MIC assay, S. aureus ATCC 29213. Conditions: Staphylococcus aureus, ATCC 29213 / MSSA. The method, then:
(§2) To determine the ability of test compounds to potentiate the inhibition of the growth of bacterial strains, classic cell-based broth microdilution MIC assays were employed. MIC assays are performed according to CLSI methods except where otherwise noted (CLSI, 2011 and CLSI, 2009). The reference strains S. aureus ATCC 29213 (methicillin sensitive), S. aureus ATCC 33591 (methicillin-resistant), E. coli ATCC 25922 (wild-type/QC strain), P. aeruginosa ATCC 27853 (wild-type/QC strain), and the clinical isolate P. aeruginosa PA 8 were used to determine the ability of the exemplary carbapenem compounds to inhibit bacterial growth. An expanded panel of methicillin resistance S. aureus (MRSA) and Pseudomonas was also used to determine the ability of exemplary carbapenem compounds to inhibit bacterial growth across a broader representation of those species. To determine activity in MRSA and in addition to S. aureus ATCC 33591, S. aureus USA 300, USA 400 and USA 600, some of the most common clones found to cause human infection, were also used. To further gauge the impact on the carbapenem compounds due to various resistance mechanisms in Pseudomonas, the following strains were included: P. aeruginosa 35151 (hyper-permeable strain), P. aeruginosa AmexAB-OprM (an efflux pump knockout), and P. aeruginosa PA 3 (a clinical isolate of reduced carbapenem susceptibility). Briefly, cryo-preserved bacterial cultures of clinical strains are streaked for isolation on appropriate agar medium, in this case Mueller Hinton II agar. Following incubation to allow formation of colonies, these plates are sealed with parafilm and stored refrigerated for up to two weeks. For preparation of assay inocula and to ensure low variability, at least 5 colonies are picked from the agar plates with an inoculating loop and aseptically transferred to a culture tube containing 3 mL of Mueller-Hinton Broth (supplemented with divalent cations to required levels based on Manufacturers' specification). The broth culture is grown for 3-5 hours at 37° C. with shaking at 200 rpm. Meanwhile, 2-fold serial dilutions of test compounds are conducted in a 96 well plate with a final volume of 75 μL per well at 2-fold the final desired concentration. After the dilution plates are set up the growing cultures are then diluted in a cuvette containing MH II broth and the optical density is measured at 600 nm. Inocula are diluted such that 75 μL of this culture in Mueller-Hinton Broth results in a starting bacterial concentration of 5×10^5 CFU/mL when added to the dilution plates. The plates are incubated 16-20 hours at 37° C. The MIC is read visually as the lowest concentration well with no bacterial growth.
(§3) Representative results are shown in Tables 3, 4, and 5 where A represents an MIC>32 μg/mL, B represents an MIC between 8 and 32 μg/mL inclusive, C represents an MIC between 1 and 4 μg/mL inclusive, and D represents an MIC of <1 μg/mL. NT=Not Tested.

Assay [3] concerns P. aeruginosa ATCC 27853 (wild-type/QC strain). The assay is described as follows: broth microdilution MIC assay, P. aeruginosa ATCC 27853. Conditions: Pseudomonas aeruginosa. In outline: as §1
The subject of assay [4] is E. coli ATCC 25922 (wild-type/QC strain). Briefly: broth microdilution MIC assay, E. coli ATCC 25922. Conditions: Escherichia coli. In outline: as §1
Assay [5] deals with clinical isolate P. aeruginosa PA 8. The assay is described as follows: broth microdilution MIC assay, P. aeruginosa PA 8. The conditions noted are these: Pseudomonas aeruginosa; Table 3; P. aeruginosa PA8. The method, then:
as §2, §3

Setting [6] is: Table 3, S. aureus 33591 (MRSA), read-out: S. aureus 33591 (MRSA) MIC.
[7] abbreviates: Table 3, S. aureus 29213 (MSSA), read-out: S. aureus 29213 (MSSA) MIC.
Where [8] appears, read: ATCC27853, Table 3, P. aeruginosa 27853, read-out: P. aeruginosa 27853 MIC.
Setting [9] is: ATCC25922, Table 3, E. coli 25922, read-out: E. coli 25922 MIC.

Like-named read-outs stand apart in the source and are kept apart here. Some results are limits rather than exact numbers.

Turning to `C[C@@H](O)[C@H]1C(=O)N2C(C(=O)O)=C(S[C@@H]3CCN(C4CCNCC4)C3)[C@H](C)[C@H]12` [Example 1, (4R,5S,6S)-6-((R)-1-hydroxyethyl)-4-methyl-7-oxo-3-(((R)-1-(piperidin-4-yl)pyrrolidin-3-yl)thio)-1-azabicyclo[3.2.0]hept-2-ene-2-carboxylic acid], the MIC in assay [1] (setting [6]) was 8 to 32 µg/mL; in assay [2] (setting [7]), less than 1 µg/mL; in assay [3] (setting [8]) it was 1 to 4 µg/mL; in assay [4] (setting [9]), less than 1 µg/mL.
On to `C[C@@H](O)[C@H]1C(=O)N2C(C(=O)O)=C(S[C@H]3CCN(C4CCNCC4)C3)[C@H](C)[C@H]12` [Example 2, (4R,5S,6S)-6-((R)-1-hydroxyethyl)-4-methyl-7-oxo-3-(((S)-1-(piperidin-4-yl)pyrrolidin-3-yl)thio)-1-azabicyclo[3.2.0]hept-2-ene-2-carboxylic acid], for which the MIC was 8 to 32 µg/mL in assay [1] (setting [6]); less than 1 µg/mL in assay [2] (setting [7]); 1 to 4 µg/mL in assay [3] (setting [8]); greater than 32 µg/mL in assay [5]; less than 1 µg/mL in assay [4] (setting [9]).
With `C[C@@H](O)[C@H]1C(=O)N2C(C(=O)O)=C(S[C@@H]3CCN(C4CCCNC4)C3)[C@H](C)[C@H]12` (stereo partly drawn) [Example 4, (4R,5S,6S)-6-((R)-1-hydroxyethyl)-4-methyl-7-oxo-3-(((3R)-1-(piperidin-3-yl)pyrrolidin-3-yl)thio)-1-azabicyclo[3.2.0]hept-2-ene-2-carboxylic acid], the MIC in assay [1] (setting [6]) was 8 to 32 µg/mL; in assay [2] (setting [7]), less than 1 µg/mL; in assay [3] (setting [8]) it was 1 to 4 µg/mL; in assay [5] it was 8 to 32 µg/mL; in assay [4] (setting [9]) it was less than 1 µg/mL.
As to `C[C@@H](O)[C@H]1C(=O)N2C(C(=O)O)=C(S[C@@H]3C[C@@H](CO)N(C4CCNCC4)C3)[C@H](C)[C@H]12` [Example 5, (4R,5S,6S)-6-((R)-1-hydroxyethyl)-3-(((3R,5S)-5-(hydroxymethyl)-1-(piperidin-4-yl)pyrrolidin-3-yl)thio)-4-methyl-7-oxo-1-azabicyclo[3.2.0]hept-2-ene-2-carboxylic acid], the MIC in assay [1] (setting [6]) was 8 to 32 µg/mL; in assay [2] (setting [7]), less than 1 µg/mL; in assay [3] (setting [8]), 1 to 4 µg/mL; in assay [4] (setting [9]) it was less than 1 µg/mL.
As to `C[C@@H](O)[C@H]1C(=O)N2C(C(=O)O)=C(S[C@@H]3CCN(C4CCNC4)C3)[C@H](C)[C@H]12` (stereo partly drawn) [Example 6, (4R,5S,6S)-3-(((3R)-[1,3′-bipyrrolidin]-3-yl)thio)-6-((R)-1-hydroxyethyl)-4-methyl-7-oxo-1-azabicyclo[3.2.0]hept-2-ene-2-carboxylic acid], the MIC in assay [1] (setting [6]) is 8 to 32 µg/mL; in assay [2] (setting [7]), less than 1 µg/mL; in assay [3] (setting [8]), 1 to 4 µg/mL; in assay [5], 1 to 4 µg/mL; in assay [4] (setting [9]) it was less than 1 µg/mL.
Consider `C[C@@H](O)[C@H]1C(=O)N2C(C(=O)O)=C(S[C@@H]3CCN(CC4CCNCC4)C3)[C@H](C)[C@H]12` [Example 7, (4R,5S,6S)-6-((R)-1-hydroxyethyl)-4-methyl-7-oxo-3-(((R)-1-(piperidin-4-ylmethyl)pyrrolidin-3-yl)thio)-1-azabicyclo[3.2.0]hept-2-ene-2-carboxylic acid], for which the MIC is 1 to 4 µg/mL in assay [1] (setting [6]); less than 1 µg/mL in assay [2] (setting [7]); 1 to 4 µg/mL in assay [3] (setting [8]); 1 to 4 µg/mL in assay [5]; less than 1 µg/mL in assay [4] (setting [9]).
Take `C[C@@H](O)[C@H]1C(=O)N2C(C(=O)O)=C(S[C@@H]3CCN(C[C@H]4CCCN4)C3)[C@H](C)[C@H]12` [Example 8, (4R,5S,6S)-6-((R)-1-hydroxyethyl)-4-methyl-7-oxo-3-(((R)-1-(((R)-pyrrolidin-2-yl)methyl)pyrrolidin-3-yl)thio)-1-azabicyclo[3.2.0]hept-2-ene-2-carboxylic acid]: the MIC in assay [1] (setting [6]) is 1 to 4 µg/mL; in assay [2] (setting [7]), less than 1 µg/mL; in assay [3] (setting [8]), 8 to 32 µg/mL; in assay [5], 8 to 32 µg/mL; in assay [4] (setting [9]) it was less than 1 µg/mL.
As for `C[C@@H](O)[C@H]1C(=O)N2C(C(=O)O)=C(S[C@@H]3CCN(Cc4cccnc4)C3)[C@H](C)[C@H]12` [Example 10, (4R,5S,6S)-6-((R)-1-hydroxyethyl)-4-methyl-7-oxo-3-(((R)-1-(pyridin-3-ylmethyl)pyrrolidin-3-yl)thio)-1-azabicyclo[3.2.0]hept-2-ene-2-carboxylic acid], the MIC in assay [1] (setting [6]) was 8 to 32 µg/mL; in assay [2] (setting [7]), less than 1 µg/mL; in assay [3] (setting [8]), 8 to 32 µg/mL; in assay [4] (setting [9]), less than 1 µg/mL.
On to `C[C@@H](O)[C@H]1C(=O)N2C(C(=O)O)=C(S[C@@H]3CCN(CC4CCCNC4)C3)[C@H](C)[C@H]12` (stereo partly drawn) [Example 12, (4R,5S,6S)-6-((R)-1-hydroxyethyl)-4-methyl-7-oxo-3-(((3R)-1-(piperidin-3-ylmethyl)pyrrolidin-3-yl)thio)-1-azabicyclo[3.2.0]hept-2-ene-2-carboxylic acid], for which the MIC is 8 to 32 µg/mL in assay [1] (setting [6]), less than 1 µg/mL in assay [2] (setting [7]), 8 to 32 µg/mL in assay [3] (setting [8]) and less than 1 µg/mL in assay [4] (setting [9]).
As to `C[C@@H](O)[C@H]1C(=O)N2C(C(=O)O)=C(S[C@@H]3CCN(CC4CCCCN4)C3)[C@H](C)[C@H]12` (stereo partly drawn) [Example 13, (4R,5S,6S)-6-((R)-1-hydroxyethyl)-4-methyl-7-oxo-3-(((3R)-1-(piperidin-2-ylmethyl)pyrrolidin-3-yl)thio)-1-azabicyclo[3.2.0]hept-2-ene-2-carboxylic acid], the MIC in assay [1] (setting [6]) is 8 to 32 µg/mL; in assay [2] (setting [7]) it was less than 1 µg/mL; in assay [3] (setting [8]), 8 to 32 µg/mL; in assay [4] (setting [9]), less than 1 µg/mL.
With `C[C@@H](O)[C@H]1C(=O)N2C(C(=O)O)=C(S[C@@H]3CCN(C[C@@H]4CCCN4)C3)[C@H](C)[C@H]12` [Example 14, (4R,5S,6S)-6-((R)-1-hydroxyethyl)-4-methyl-7-oxo-3-(((R)-1-(((S)-pyrrolidin-2-yl)methyl)pyrrolidin-3-yl)thio)-1-azabicyclo[3.2.0]hept-2-ene-2-carboxylic acid], the MIC is 8 to 32 µg/mL in assay [1] (setting [6]), less than 1 µg/mL in assay [2] (setting [7]), 8 to 32 µg/mL in assay [3] (setting [8]) and less than 1 µg/mL in assay [4] (setting [9]).
As to `C[C@@H](O)[C@H]1C(=O)N2C(C(=O)O)=C(S[C@@H]3CCN(CC4(C)CCNCC4)C3)[C@H](C)[C@H]12` [Example 15, (4R,5S,6S)-6-((R)-1-hydroxyethyl)-4-methyl-3-(((R)-1-((4-methylpiperidin-4-yl)methyl)pyrrolidin-3-yl)thio)-7-oxo-1-azabicyclo[3.2.0]hept-2-ene-2-carboxylic acid], the MIC in assay [1] (setting [6]) is 8 to 32 µg/mL; in assay [2] (setting [7]) it was less than 1 µg/mL; in assay [3] (setting [8]), 8 to 32 µg/mL; in assay [4] (setting [9]), less than 1 µg/mL.
In the case of `C[C@@H](O)[C@H]1C(=O)N2C(C(=O)O)=C(S[C@@H]3CCN(CC4(F)CCNCC4)C3)[C@H](C)[C@H]12` [Example 16, (4R,5S,6S)-3-(((R)-1-((4-fluoropiperidin-4-yl)methyl)pyrrolidin-3-yl)thio)-6-((R)-1-hydroxyethyl)-4-methyl-7-oxo-1-azabicyclo[3.2.0]hept-2-ene-2-carboxylic acid], the MIC is 8 to 32 µg/mL in assay [1] (read-out: S. aureus 33591 (MRSA) MIC (μg/mL)); less than 1 µg/mL in assay [2] (read-out: S. aureus 29213 (MSSA) MIC (μg/mL)); 8 to 32 µg/mL in assay [3] (ATCC27853, read-out: P. aeruginosa 27853 MIC (μg/mL)); less than 1 µg/mL in assay [4] (ATCC25922, read-out: E. coli 25922 MIC (μg/mL)).
